Test results as given in US5464617A, “β-lactam compounds” (Hoffmann-La Roche Inc., priority 1994, dated 1995).
Values after ≈ are worked out from the molar mass of the structure shown. Where a name gives a salt, the structure may show the parent alone.

These molecules were tested on Citrobacter freundii 1982 (assay: MIC in vitro of a 1:4 combination of ceftriaxone with a compound of formula I (Test D)). Settings: Table 2; 1:4 combination of ceftriaxone with the compound.
Type: cell-based
Procedure: The minimum inhibitory concentration in vitro ([…]) of a 1:4 combination of ceftriaxone with a compound of formula I against Citrobacter freundii 1982 was measured and compiled in Table 2 hereinafter.

First: Cc1ccc(S(=O)(=O)OC2=C(C(=O)O)N3C(=O)[C@@H]4[C@H]3[C@H](C2)CN4C(=O)OC(C)(C)C)cc1 [10(d), (1aS,3aR,6bR)-2-t-Butoxycarbonyl-5-(4-methyl-phenylsulphonyloxy)-1-oxo-1a,2,3,3a,4,6b-hexahydro-1H-2,6a-diazacyclobut[cd]indene-6-carboxylic acid sodium salt]
Second: CC(C)(C)OC(=O)N1C[C@H]2CC(OS(C)(=O)=O)=C(C(=O)O)N3C(=O)[C@@H]1[C@@H]23 [10(a), (1aS,3aR,6bR)-2-t-Butoxycarbonyl-5-methylsulphonyloxy-1-oxo-1a,2,3,3a,4,6b-hexahydro-1H-2,6a-diazacyclobut[cd]-indene-6-carboxylic acid sodium salt]
The “MIC C. freundii 1982” value of the first is 8-fold higher: 8 µg/mL for the first, 1 µg/mL for the second.

CS(=O)(=O)OC1=C(C(=O)O)N2C(=O)[C@@H]3[C@H]2[C@H](C1)CN3C(=O)N[C@H]1CCNC1=O [9(e), (1aS,3aR,6bR)-5-Methylsulphonyloxy-1-oxo-2-[(S)-2-oxo-pyrrolidin-3-ylcarbamoyl]-1a,2,3,3a,4,6b-hexahydro-1H-2,6a-diazacyclobut[cd]indene-6-carboxylicacid sodium salt] and Cn1nnnc1SC1=C(C(=O)O)N2C(=O)[C@@H]3[C@H]2[C@H](C1)CN3C(=O)N[C@H]1CCNC1=O [3(c), (1aS,3aR,6bR)-2-[(S)-2-Oxo-pyrrolidin-3-ylcarbamoyl]-5-(1-methyl-1H-tetrazol-5-ylsulphanyl)-1-oxo-1a,2,3,3a,4,6b-hexahydro-1H-2,6a-diazacyclobut[cd]indene-6-carboxylic acid sodium salt] are the same in “MIC C. freundii 1982” value: 0.25 µg/mL for the first, 0.25 µg/mL for the second.

Cn1nnnc1SC1=C(C(=O)O)N2C(=O)[C@@H]3[C@H]2[C@H](C1)CN3C(=O)NC1CCS(=O)(=O)C1 (mixture of isomers) [3(i), (1aS,3aR,6bR)-2-[(R)- and [(S)-1,1-dioxo-tetrahydrothien-3-ylcarbamoyl)-5-(1-methyl-1H-tetrazol-5-ylsulphanyl)-1-oxo-1a,2,3,3a,4,6b-hexahydro-1H-2,6a-diazacyclobut[cd]indene-6-carboxylic acid sodium salt] and Cn1nnnc1SC1=C(C(=O)O)N2C(=O)[C@@H]3[C@H]2[C@H](C1)CN3C(=O)NC1CCSC1=O (mixture of isomers) [3(f), (1aS,3aR,6bR)-5-(1-Methyl-1H-tetrazol-5-ylsulphanyl)-1-oxo-2-[(R)- and [(S)-2-oxo-tetrahydro-thien-3-ylcarbamoyl]-1a,2,3,3a,4,6b-hexahydro-1H-2,6a-diazacyclobut[cd]indene-6-carboxylic acid sodium salt] are the same in “MIC C. freundii 1982” value: 0.06 µg/mL for the first, 0.06 µg/mL for the second.

O=C([O-])C1=C(C[n+]2ccccc2)C[C@@H]2CN(C(=O)NCc3cc(O)no3)[C@@H]3C(=O)N1[C@H]23 [23(b), (1aS,3aR,6bR)-2-(3-Hydroxy-isoxazol-5-ylmethylcarbamoyl)-1-oxo-5-(pyridin-1-yliomethyl)-1a,2,3,3a,4,6b-hexahydro-1H-2,6a-diazacyclobut[cd]indene-6-carboxylate] and O=C([O-])C1=C(C[n+]2ccccc2)C[C@@H]2CN(C(=O)Nc3ccc(O)cc3)[C@@H]3C(=O)N1[C@H]23 [23(a)] are the same in “MIC C. freundii 1982” value: 1 µg/mL for the first, 1 µg/mL for the second.

Compared with NC(=O)c1ccc(NC(=O)N2C[C@H]3CC(C[n+]4ccccc4)=C(C(=O)[O-])N4C(=O)[C@@H]2[C@@H]34)cc1 [23(c), (1aS,3aR,6bR)-2-(4-Carbamoyl-phenylcarbamoyl)-1-oxo-5-(pyridin-1-yliomethyl)-1a,2,3,3a,4,6b-hexahydro-1H-2,6a-diazacyclobut[cd]indene-6-carboxylate], C[n+]1ccc(SCC2=C(C(=O)[O-])N3C(=O)[C@@H]4[C@H]3[C@H](C2)CN4C(=O)Nc2ccc(C(N)=O)cc2)cc1 [Example 21, (1aS,3aR,6bR)-2-(4-Carbamoyl-phenylcarbamoyl)-5-(1-methylpyridin-1-yliosulphanylmethyl)-1-oxo-1a,2,3,3a,4,6b-hexahydro-1H-2,6a-diazacyclobut[cd]indene-6-carboxylate] is 2-fold higher in “MIC C. freundii 1982” value: 0.25 µg/mL for the first, 0.5 µg/mL for the second.

First: NC(=O)c1ccc(NC(=O)N2C[C@H]3CC(Sc4nnc(N)s4)=C(C(=O)O)N4C(=O)[C@@H]2[C@@H]34)cc1 [3(m), (1aS,3aR,6bR)-5-(5-Amino1,3,4-thiadiazol-2-ylsulphanyl)-2-(4-carbamoyl-amino-phenylcarbamoyl)-1-oxo-1a,2,3,3a,4,6b-hexahydro-1H-2,6a-diazacyclobut]cd]indene-6-carboxylic acid sodium salt]
Second: Cc1nnc(SC2=C(C(=O)O)N3C(=O)[C@@H]4[C@H]3[C@H](C2)CN4C(=O)Nc2ccc(C(N)=O)cc2)s1 [3(k), (1aS,3aR,6bR)-2-(4-Carbamoyl-phenylcarbamoyl)-5-(5-methyl-1,3,4-thiadiazol-2-ylsulphanyl)-1-oxo-1a,2,3,3a,4,6b-hexahydro-1H-2,6a-diazacyclobut[cd]indene-6-carboxylic acid sodium salt]
The “MIC C. freundii 1982” value of the first is 2-fold lower: 0.25 µg/mL for the first, 0.5 µg/mL for the second.

COC(=O)CC1=C(C(=O)O)N2C(=O)[C@@H]3[C@H]2[C@H](C1)CN3C(=O)Nc1ccc(O)cc1 [13(b), (1aS,3aR,6bR)-2-(4-Hydroxy-phenylcarbamoyl)-5-methoxycarbonylmethyl-1-oxo-1a,2,3,3a,4,6b-hexahydro-1H-2,6a-diazacyclobut[cd]indene-6-carboxylic add sodium salt] and CC(=O)OCC1=C(C(=O)O)N2C(=O)[C@@H]3[C@H]2[C@H](C1)CN3C(=O)Nc1ccc(O)cc1 [Example 25, (1aS,3aR,6bR)-5-Acetoxymethyl-2-(4-hydroxy-phenylcarbamoyl)-1-oxo-1a,2,3,3a,4,6b-hexahydro-1H-2,6a-diazacyclobut[cd]indene-6-carboxylic acid sodium salt] are the same in “MIC C. freundii 1982” value: 0.25 µg/mL for the first, 0.25 µg/mL for the second.

Compared with Cn1nnnc1SC1=C(C(=O)O)N2C(=O)[C@@H]3[C@H]2[C@H](C1)CN3C(=O)Nc1ccc(C(N)=O)cc1 [3(b), (1aS,3aR,6bR)-2-(4-Carbamoyl-phenylcarbamoyl)-5-(1-methyl-1H-tetrazol-5-ylsulphanyl)-1-oxo-1a,2,3,3a,4,6b-hexahydro-1H-2,6a-diazacyclobut[cd]indene-6-carboxylic acid sodium salt], O=C(C[n+]1ccccc1)Nc1nnc(SC2=C(C(=O)[O-])N3C(=O)[C@@H]4[C@H]3[C@H](C2)CN4C(=O)Nc2ccc(O)cc2)s1 [Example 5, (1aS,3aR,6bR)-2-(4-Hydroxy-phenylcarbamoyl)-1-oxo-5-[5-(pyridin-1-ylioacetylamino)-1,3,4-thiadiazol-2-ylsulphanyl]-1a,2,3,3a,4,6b-hexahydro-1H-2,6a-diazacyclobut[cd]indene-6-carboxylic acid] is 8-fold higher in “MIC C. freundii 1982” value: 0.25 µg/mL for the first, 2 µg/mL for the second.

Same assay, conditions: Table 4; test D, 1:4 combination of ceftriaxone with the compound

Going from Cn1nnnc1SCC1=C(C(=O)O)N2C(=O)[C@@H]3[C@H]2[C@H](C1)CN3C(=O)NCc1cccs1 [18(g), (1aS,3aR,6bR)-1-Oxo-5-(1-methyl-1H-tetrazol-5-yl-sulphanylmethyl)-2-thiophen-2-ylmethylcarbamoyl-1a,2,3,3a,4,6b-hexahydro-1H-2,6a-diazacyclobut[cd]indene-6-carboxylic acid sodium salt] to COC(=O)CN1C[C@H]2CC(CSc3nnnn3C)=C(C(=O)O)N3C(=O)[C@@H]1[C@@H]23 [61(a), (1aS,3aR,6bR)-2-Methoxycarbonylmethyl-5-(1-methyl-1H-tetrazol-5-ylsulphanylmethyl)-1-oxo-1a,2,3,3a,4,6b-hexahydro-1H-2,6a-diazacyclobut[cd]indene-6-carboxylic acid], the “MIC C. freundii 1982 (D)” value falls from 0.5 µg/mL to 0.25 µg/mL (2-fold).

In the case of Cn1nnnc1SCC1=C(C(=O)O)N2C(=O)[C@@H]3[C@H]2[C@H](C1)CN3S(=O)(=O)C(F)(F)F [19(f), (1aS,3aR,6bR)-5-(1-Methyl-1H-tetrazol-5-ylsulphanylmethyl)-1-oxo-2-trifluormethylsulphonyl-1a,2,3,3a,4,6b-hexahydro-1H-2,6a-diazacyclobut[cd]indene-6-carboxylic acid sodium salt], the “MIC C. freundii 1982 (D)” value is reported as 4 µg/mL.

These molecules were tested on E. coli 1346 (assay: Antibacterial activity of the products per se, serial dilution method in liquid medium (Test E)). Settings: Table 3; product per se, liquid medium.
Type: cell-based
From the text: The antibacterial activity of the products per se is illustrated on the basis of Table 3 hereinafter, the minimum inhibitory concentration […] in vitro against E. coli 1346 being determined using the serial dilution method in liquid medium: […]

Compared with Cn1nnnc1SC1=C(C(=O)O)N2C(=O)[C@H]3NC[C@@H](C1)[C@H]32 [Example 2(a), (1aS,3aR,6bR)-5-(1-Methyl-1H-tetrazol-5-ylsulphanyl)-1-oxo-1a,2,3,3a,4,6b-hexahydro-1H-2,6a-diazacyclobut[cd]indene-6-carboxylic acid trifluoroacetate], Cn1nnnc1SCC1=C(C(=O)O)N2C(=O)[C@H]3NC[C@@H](C1)[C@H]32 [Example 15, (1aS,3aR,6bR)-5-(1-Methyl-1H-tetrazol-5-ylsulphanylmethyl)-1-oxo-1a,2,3,3a,4,6b-hexahydro-1H-2,6a-diazacyclobut[cd]indene-6-carboxylic acid trifluoroacetate] is 2-fold lower in “MIC E. coli 1346” value: 4 µg/mL for the first, 2 µg/mL for the second.

First: CS(=O)(=O)OC1=C(C(=O)[O-])N2C(=O)[C@@H]3[C@H]2[C@H](C1)CN3C(=O)C[n+]1cccc(C(N)=O)c1 [11(a), (1 aS,3aR,6bR)-2-(3-Carbamoyl-pyridin-1-ylioacetyl)-5-methylsulphonyloxy-1-oxo-1a,2,3,3a,4,6b-hexahydro-1H-2,6a-diazacyclobut[cd]indene-6-carboxylate]
Second: CC(=O)N1C[C@H]2CC(CSc3nnnn3C)=C(C(=O)O)N3C(=O)[C@@H]1[C@@H]23 [Example 19(a), (1aS,3aR,6bR)-2-Acetyl-5-(1-methyl-1H-tetrazol-5-ylsulphahylmethyl)-1-oxo-1a,2,3,3a,4,6b-hexahydro-1H-2,6a-diazacyclobut[cd]indene-6-carboxylic acid sodium salt]
The “MIC E. coli 1346” value of the first is 64-fold higher: 32 µg/mL (≈ 71 µM) for the first, 0.5 µg/mL for the second.

Cc1nnc(SC2=C(C(=O)O)N3C(=O)[C@@H]4[C@H]3[C@H](C2)CN4C(=O)Nc2ccc(O)cc2)s1 [3(j), (1aS,3aR,6bR)-2-(4-Hydroxyphenylcarbamoyl)-5-(5-methyl-1,3,4-thiadiazol-2-ylsulphanyl)-1-oxo-1a,2,3,3a,4,6b-hexahydro-1H-2,6a-diazacyclobut[cd]indene-6-carboxylic acid sodium salt] was tested, and the “MIC E. coli 1346” value was 32 µg/mL.
